The record followed here is ChEMBL document CHEMBL6178019, “Discovery of CYP1A1 Inhibitors for Host-Directed Therapy against Sepsis” (J Med Chem, 2025).

Activity calls are given as the source filed them. The rule behind the calls is not given here.

Data set [1] is described as follows: Toxicity in male C57BL/6 mouse assessed as effect on aspartate aminotransferase (AST) level in serum up to 100 mg/kg, ip measured after 12 hrs. Format: organism-based. To be noted: in vivo.
The subject of data set [2] is Staphylococcus aureus. The experiment in a line: Antibacterial activity methicillin-resistant Staphylococcus aureus infected in C57BL/6 mouse model assessed as increase in survival at 25 mg/kg, ip preadministered for 12 hrs followed by bacterial infection and measured after 60 hrs by Kaplan Meier survival analysis. As to conditions: time 72.0 hrs. The format is functional, organism-based.

The subject of data set [3] is Acinetobacter baumannii. The experiment in a line: Antibacterial activity against Acinetobacter baumannii assessed as inhibition of bacterial growth at 0.02 to 2.5 mg/ml. Format: functional, organism-based. As to conditions: dose 0.02-2.5 mg/ml.
Data set [4] deals with Mus musculus. The experiment in a line: Effect on CYP1A1 protein expression in C57BL/6 mouse kidney infected with methicillin-resistant Staphylococcus aureus at 25 mg/kg, ip administered for 12 hrs by Western blot analysis. Format: functional, organism-based. (A western blot detects proteins with antibodies after separation by electrophoresis.)
Data set [5] has as its system RAW264.7. As to the kind of experiment: Induction of phagocytosis in mouse RAW264.7 cells assessed as upregulation of CD68 protein level by flow cytometric analysis. Format: functional, cell-based.
The subject of data set [6] is Staphylococcus aureus. The experiment in a line: Antibacterial activity against methicillin-resistant Staphylococcus aureus infected in C57BL/6 mouse model assessed as reversal of alanine transaminase level in serum at 25 mg/kg, ip administered for 12 hrs by absorbance based microplate reader. The format is functional, organism-based.
The subject of data set [7] is Acinetobacter baumannii. As to the kind of experiment: Antibacterial activity against Acinetobacter baumannii infected in C57BL/6 mouse assessed as increase in survival at 25 mg/kg, ip preadministered for 12 hrs followed by bacterial infection and measured after 60 hrs by Kaplan Meier survival analysis. Format: functional, organism-based. As to conditions: time 72.0 hrs.

The subject of data set [8] is Staphylococcus aureus. As to the kind of experiment: Antibacterial activity against methicillin-resistant Staphylococcus aureus infected in CYP1A1 deficient mouse assessed as bacterial clearance in PLF at 25 mg/kg, ip pretreated for 12 hrs followed by bacterial infection for 24 hrs. The format is functional, organism-based. To be noted: time 36.0 hrs.
Data set [9] concerns Staphylococcus aureus. The experiment in a line: Antibacterial activity against methicillin-resistant Staphylococcus aureus infected in C57BL/6 mouse model assessed as reduction in bacterial load in peritoneal lavage fluid at 25 mg/kg, ip pretreated for 12 hrs followed by bacterial infection and measured after 24 hrs relative to control. The format is functional. Further details: scale not given: the % may be the effect or the level left. As to conditions: time 36 hrs.

Data set [10] in a line: Toxicity in male C57BL/6 mouse assessed as effect on alanine transaminase (ALT) level in serum up to 100 mg/kg, ip measured after 12 hrs. Format: organism-based. As to conditions: in vivo.
Data set [11] has as its system RAW264.7. As to the kind of experiment: Induction of phagocytosis in zymosan A stimulated mouse RAW264.7 cells assessed as upregulation of SR-A1 mRNA expression at 5.0 uM incubated for 12 hrs by qRT-PCR analysis. The format is functional, cell-based.
The next data set concerns the target T1, CYP1A1 (Homo sapiens, UniProt P04798).
T1 sequence (P04798 whole entry): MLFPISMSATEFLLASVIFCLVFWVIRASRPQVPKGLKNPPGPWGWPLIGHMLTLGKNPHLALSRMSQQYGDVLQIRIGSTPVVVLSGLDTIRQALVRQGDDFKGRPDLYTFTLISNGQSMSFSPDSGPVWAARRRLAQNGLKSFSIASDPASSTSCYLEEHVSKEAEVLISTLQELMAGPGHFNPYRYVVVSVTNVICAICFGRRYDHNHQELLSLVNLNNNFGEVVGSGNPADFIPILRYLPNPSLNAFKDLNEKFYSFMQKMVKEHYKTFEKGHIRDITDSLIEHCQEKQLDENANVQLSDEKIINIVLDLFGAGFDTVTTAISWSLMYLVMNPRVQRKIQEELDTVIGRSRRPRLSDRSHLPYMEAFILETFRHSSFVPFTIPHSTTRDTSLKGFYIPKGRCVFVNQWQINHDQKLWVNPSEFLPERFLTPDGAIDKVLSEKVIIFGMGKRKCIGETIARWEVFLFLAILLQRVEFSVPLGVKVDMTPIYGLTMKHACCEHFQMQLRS
The experiment in a line: Inhibition of CYP1A1 in human Caco-2 cells at 500 nM incubated for 12 hrs by EROD assay relative to control. The format is cell-based.

For data set [12], the system named is RAW264.7. As to the kind of experiment: Induction of phagocytosis in mouse RAW264.7 cells assessed as upregulation of CD204 protein level by flow cytometric analysis. The format is functional, cell-based. In general terms: Flow cytometry measures light scatter and fluorescence of single cells or particles in a stream.
Data set [13] relates to RAW264.7. As to the kind of experiment: Induction of phagocytosis in mouse RAW264.7 cells assessed as upregulation of CD32 mRNA expression by qRT-PCR analysis. The format is functional, cell-based.
The test system of data set [14] is Mus musculus. As to the kind of experiment: Effect on CYP1A1 protein expression in C57BL/6 mouse liver infected with methicillin-resistant Staphylococcus aureus at 25 mg/kg, ip administered for 12 hrs by Western blot analysis. Format: functional, organism-based.
Data set [15] relates to Staphylococcus aureus. As to the kind of experiment: Antibacterial activity against methicillin-resistant Staphylococcus aureus infected in C57BL/6 mouse assessed as reduction in kidney damage at 25 mg/kg, ip administered for 12 hrs by H and E staining based analysis. The format is functional, organism-based.
In data set [16] the test system is RAW264.7. The experiment in a line: Induction of phagocytosis in zymosan A stimulated mouse RAW264.7 cells assessed as upregulation of CD32 mRNA expression at 5.0 uM incubated for 12 hrs by qRT-PCR analysis. Format: functional, cell-based. (Quantitative PCR measures a nucleic acid by following its amplification.)
Another data set addresses T2, Cytochrome P450 1A1 (Homo sapiens, UniProt P04798).
T2 sequence (P04798 whole entry): T1 sequence (P04798 whole entry)
As to the kind of experiment: Inhibition of CYP1A1 in human Caco-2 cells assessed as relative activity by measuring fold change at 5.0 uM incubated for 12 hrs by EROD assay relative to control. The format is cell-based. To be noted: caco-2, 12 h.

For data set [17], the system named is Acinetobacter baumannii. As to the kind of experiment: Antibacterial activity against Acinetobacter baumannii infected in C57BL/6 mouse model assessed as reduction in bacterial load in peritoneal lavage fluid at 25 mg/kg, ip pretreated for 12 hrs followed by bacterial infection and measured after 24 hrs relative to control. The format is functional. The arrangement: scale not given: the % may be the effect or the level left. As to conditions: time 36 hrs.

Data set [18] deals with Staphylococcus aureus. As to the kind of experiment: Antibacterial activity against methicillin-resistant Staphylococcus aureus infected in C57BL/6 mouse model assessed as reduction in bacterial dissemination from PLF to kidney at 25 mg/kg, ip preadministered for 12 hrs followed by bacterial infection and measured after 24 hrs. As to conditions: time 36.0 hrs. Format: functional, organism-based.

The next data set has as its system Escherichia coli. The experiment in a line: Antibacterial activity Escherichia coli infected in C57BL/6 mouse model assessed as increase in survival rate at 25 mg/kg, ip incubated for 12 hrs followed by bacterial infection and measured after 100 hrs by Kaplan Meier survival analysis. The format is functional, organism-based. To be noted: time 112.0 hrs.
For data set [19], the system named is RAW264.7. As to the kind of experiment: Induction of phagocytosis in zymosan A stimulated mouse RAW264.7 cells assessed as upregulation of CD68 protein level at 5.0 uM incubated for 12 hrs by flow cytometric analysis. Format: functional, cell-based.
The next data set has as its system Pseudomonas aeruginosa. The experiment in a line: Antibacterial activity against Pseudomonas aeruginosa infected in C57BL/6 mouse assessed as increase in survival at 25 mg/kg, ip pretreated for 12 hrs followed by bacterial infection and measured after 60 hrs by Kaplan Meier survival analysis. The format is functional, organism-based. To be noted: time 72.0 hrs.

On to `C#Cc1ccccc1/C=C/C(=O)c1ccc2c(c1)n(C)c(=O)n2C`, for which the Activity entry is recorded as “Non-toxic” in data set [1], above 70% with Staphylococcus aureus [9], “Non-toxic” in data set [10] and above 70% with Acinetobacter baumannii [17]. The outcome with Staphylococcus aureus [2], in the data set with Acinetobacter baumannii [3], with RAW264.7 [5], in the data set on Staphylococcus aureus [6], with Acinetobacter baumannii [7] and with RAW264.7 [11] was Active. Moreover, the result in the data set with RAW264.7 [12], in the data set with RAW264.7 [13], with Staphylococcus aureus [15], with RAW264.7 [16], in the data set on Staphylococcus aureus [18] and with Escherichia coli was Active. Besides, the outcome in the data set on RAW264.7 [19] and with Pseudomonas aeruginosa was Active. Also, the result with Mus musculus [4], in the data set with Staphylococcus aureus [8] and in the data set on Mus musculus [14] was inactive. For the same compound, the inhibition at 12 h, 0.5 µM on CYP1A1 was below 10%. The “fold change (FC)” value on Cytochrome P450 1A1 is listed as 0.01.
As to `Cn1cc(/C=C/C(=O)c2ccc3c(c2)n(C)c(=O)n3C)c2ccccc21`, the Activity entry in data set [1] was “Non-toxic”; in the data set on Staphylococcus aureus [9], above 70%; in [10], “Non-toxic”; in the data set with Acinetobacter baumannii [17] it was above 70%. Moreover, the outcome with Staphylococcus aureus [2], in the data set on Acinetobacter baumannii [3], in the data set on RAW264.7 [5], in the data set with Staphylococcus aureus [6], in the data set on Acinetobacter baumannii [7] and with RAW264.7 [11] was Active. In addition, the result in the data set on RAW264.7 [12], in the data set with RAW264.7 [13], in the data set on Staphylococcus aureus [15], in the data set with RAW264.7 [16], in the data set with Staphylococcus aureus [18] and with Escherichia coli was Active. Also, the result with RAW264.7 [19] and with Pseudomonas aeruginosa was Active. Also, the result in the data set on Mus musculus [4], with Staphylococcus aureus [8] and with Mus musculus [14] was inactive. In addition, on Cytochrome P450 1A1, the “fold change (FC)” value was found to be 0.09.

The inhibition is the percentage by which the read-out fell short of the control.
